{"source": "patent US10849922B2", "about": "“Treatments for retinal disorders” (Cornell University, priority 2011, dated 2020)", "key": {"[1]": {"assay": "A2E aggregation assay", "conditions": "A2E 25 μM aqueous solution", "from_the_text": "A2E aggregates are believed to have a role in RPE cell death. This study investigated whether cyclic oligosaccharides dissolve A2E aggregates that form in aqueous phase. The following can be deduced from FIG. 13:\n[…] After three days, the liquid in each chamber was harvested and analyzed with a spectrofluorometer to detect the presence of A2E. Only inserts with 3 μm pores allowed A2E to diffuse through.\nThe presence of A2E on each side was established by fluorescence scanning between 530-700 nm using 434 nm as the excitation wavelength."}, "[2]": {"assay": "A2E fluorescence assay for molecules able to encapsulate A2E (AUC ratio)", "type": "binding", "conditions": "fluorescence spectra changes as a function of added β-CD concentration", "procedure": "In the assay method, at least two solutions containing a lipofuscin bisretinoid lipid are first provided, and the at least two solutions should be substantially the same in all respects, such as in the type of lipofuscin bisretinoid lipid, the concentration of lipofuscin bisretinoid lipid, and the solvent composition. A candidate compound is then added to at least one of the solutions. Fluorescence spectra of the two solutions (i.e., a first solution not containing the candidate compound and a second solution containing the candidate compound) is then measured at an excitation wavelength (e.g., 434 nm or other suitable excitation wavelength) that causes fluorescence of the lipofuscin bisretinoid lipid in the range of 530 nm and 700 nm, or any suitable sub-range therein. An area under the curve (AUC) is then determined for corresponding spectral curves of the first and second solutions within the range of 530 nm and 700 nm or a sub-range therein. […] A ratio of the AUC of the second solution (containing the candidate compound) over the AUC of the first solution (not containing the candidate compound) is then calculated. […]\nThe fluorescence spectra were immediately determined (although it was stable for several days) between 530 and 700 nm using a 434 nm excitation wavelength. […] The area under the resulting spectral fluorescence curve was determined with statistical software (Prism4, GraphPad). […]"}, "[3]": {"assay": "Fluorescence comparison of cyclodextrin binding to DHE", "conditions": "fluorescence spectra changes as a function of added β-CD concentration", "from_the_text": "The binding of A2E and DHE (fluorescent cholesterol analog to cyclodextrins) has been herein investigated by using the assay method described above. […] The determination of affinity constants and stoichiometry for new inclusion complexes can be complex, particularly when the molecular ratio host:guest is bigger than 1. For cholesterol, however, the affinity constants, stoichiometry, molecular structure, and applications of many of its inclusion complexes with cyclic oligosaccharides have been well established. In this context, the side-by-side comparation of A2E and cholesterol complex formation with the same cyclic oligosaccharide serves as an immediate reference to evaluate the quality of the inclusion complex with A2E, as well as help in the determination of its affinity constant, stoichiometry, and structure."}, "[4]": {"assay": "A2E oxidation assay", "conditions": "A2E 5 μM in water, 48 hours, RT in the dark, cyclodextrin 10-100 mM", "procedure": "Solutions containing increasing amounts of Poly Beta-CD (0 mM to 100 mM) were prepared in water, and A2E was added to a final concentration of 5 μM. The solutions were incubated at RT in the dark. 48 hrs later, the UV-visible absorption spectra between 300 and 700 nm was analyzed to determine the oxidative status of A2E. […] These bands can be assigned to the shorter (S) and longer (L) arms of A2E, respectively. Oxidation of a carbon-carbon double bond is accompanied by a hypsochromic shift. A hypsochromic shift in band S corresponds with oxidation on the short arm; a blue-shift in band L reflects oxidation on the long arm; hypsochromic shifts in both peaks indicates oxidation on both side arms (Jang Y. P. et al., J. Biol. Chem., 2005, 280(48):39732-9). The results shown in FIG. 12A indicate that under this aqueous environment A2E oxidizes."}, "[5]": {"tested_on": "eyecups from DKO mice", "assay": "In vitro assay on eyecups of DKO mice", "conditions": "2 mM cyclodextrin, 36 hours of culture", "procedure": "FIGS. 17A, 17B. […] The resulting eyecups were in vitro treated with cyclodextrins for 36 hrs before observing them under the microscope (FIG. 17B).\nEyecups comprise the dark pigmented RPE, choriocapillaries, as well as the grayish sclera. Eyecups were incubated in complete media containing, or not, 2 mM cyclodextrins. After 36 hours of culture, eyecups were flat mounted on glasses and fluorescence was analyzed in the microscope."}, "[6]": {"tested_on": "DKO mice", "assay": "Fluorescence microscopy of cryosected retinas of DKO mice after subtenon injection", "type": "in vivo", "conditions": "single subtenon injection 4000 mg/kg, after 48 hours; for retinal detachment in cryosected retinas: 4000 mg/kg", "procedure": "FIG. 18. Micrographs showing the fluorescence of cryosected retinas of 8-months old WT and DKO mice. The micrographs obtained from (A) a normal mouse, (B) DKO animals not treated with methyl beta-CD, and (C) DKO animals treated with methyl beta-CD. The DKO animals have strong autofluorescence in the RPE layer compared with WT as well as retinal detachment (size shown by arrow). Single subtenon administration of methyl Beta CD (4000 mg/kg) reduced both RPE autofluorescence and retinal detachment.\nThe retinas of wild type and DKO animals were analyzed by fluorescence microscopy with the following procedure. Briefly wild type and DKO animals were mock-treated or treated with a single subtenon injection with either vehicle or with methyl beta-cyclodextrin (4000 mg/kg). After 48 hours the eyes were enucleated, fixed, and cryosected. For viewing, 10-micron thick sections were blocked and stained with the red-fluorescently labeled lectin PNA to identify cones in the photoreceptor outer segments (PROS), and blue DAPI nuclear stain to identify the nuclei. In the gray scale micrograph of FIG. 18 (Panel A), the red and blue stains are not distinguishable, so the red fluorescence is labeled PROS and the lighter autofluorescent RPE is also labeled."}, "[7]": {"conditions": "cited from earlier work"}}, "data": [{"compound": "OC[C@H]1O[C@@H]2O[C@H]3[C@H](O)[C@@H](O)[C@@H](O[C@H]4[C@H](O)[C@@H](O)[C@@H](O[C@H]5[C@H](O)[C@@H](O)[C@@H](O[C@H]6[C@H](O)[C@@H](O)[C@@H](O[C@H]7[C@H](O)[C@@H](O)[C@@H](O[C@H]8[C@H](O)[C@@H](O)[C@@H](O[C@H]1[C@H](O)[C@H]2O)O[C@@H]8CO)O[C@@H]7CO)O[C@@H]6CO)O[C@@H]5CO)O[C@@H]4CO)O[C@@H]3CO", "note": "[Compound 4, β-cyclodextrin]", "values": [{"measurement": "dissolution of A2E aggregates in aqueous phase (diffusion through 0.2 μm pores)", "setting": "[1]", "value": "dissolved the A2E aggregates"}, {"measurement": "formation of inclusion complex with A2E", "setting": "[2]", "value": "A2E-β-CD inclusion complexes"}, {"measurement": "formation of inclusion complex with DHE", "setting": "[3]", "value": "formation of DHE-β-CD"}, {"measurement": "oxidation of A2E (UV-visible absorption spectra)", "setting": "[4]", "value": "oxidation of A2E was not observed"}]}, {"compound": "Methyl-β-cyclodextrin [Compound 5]", "values": [{"measurement": "fluorescence of eyecups (bisretinoids in RPE)", "setting": "[5]", "value": "lack of fluorescence"}, {"measurement": "RPE autofluorescence (bisretinoids) in cryosected retinas", "setting": "[6]", "value": "reduced"}, {"measurement": "retinal detachment in cryosected retinas", "setting": "[6]; listed as methyl Beta CD", "value": "reduced"}, {"measurement": "retinal detachment in cryosected retinas", "setting": "[6]; listed as methyl beta-cyclodextrin", "value": "reduced detachment"}]}, {"compound": "Triacetyl-β-cyclodextrin [Compound 12]", "values": [{"measurement": "solubility in water (in words)", "setting": "[7]", "value": "insoluble"}]}]}
